Assay results: paper PMC11109052, “Metabolism characterization and toxicity of N-hydap, a marine candidate drug for lung cancer therapy by LC–MS method” (Natural Products and Bioprospecting, 2024)

Columns and labels:
RKMs = test: Kinetics of N-hydap glucuronidation in RKMs; type: in vitro ADME, rat; settings: RKM
Protocol: In this study, the rats were executed by drawing blood from the abdominal aorta and mice were sacrificed with cervical dislocation before the liver and kidneys were excised. The liver and kidneys were removed, and washed with chilled cleansing solution (contains 8 mM KH2PO4, 5.6 mM EDTA·K2·2H2O, 1 mM DTT and 229.6 μM PMSF), homogenized in a tissue homogenate buffer with a pH of 7.4, (consisting of […], 8 mM K2HPO4, 250 mM sucrose, 1 mM EDTA·K2·2H2O and 229.6 μM PMSF). Subsequently, the homogenate was centrifuged at 10,400 rpm at 4 °C for 15 min, and the supernatant was then centrifuged at 35,000 rpm at 4 °C for 60 min. A 250 mM sucrose buffer was added to the pellet to reconstitute and the resuspension was stored at − 80 °C until use. Microsome protein concentrations were measured by Omni-Easy™ Instant BCA Protein Assay Kit.
Various microsomes including HLMs, HKMs, HIMs, RLMs, RKMs, MLMs and MKMs were involved in CYP and UGT reactions of N-hydap. […]
The substrate concentrations used for HLMs were 0.05, 0.5, 2, 2.5, 5, 10, 25, 50, and 100 μM. […] The rates of N-hydap-G by enzymes were expressed as nmol/mg/min, representing the amount of metabolites formed per minute per milligram of protein. Kinetic parameters were determined by analyzing the Eadie–Hofstee plots. […]

UGT1A3 = test: DME activity ex vivo in MLMs and MKMs: UGT1A3 (CDCA-G); set-up: species or system mice
Protocol: Mice were randomly divided into four groups, with eight animals in each group. The mice received oral pretreatment with N-hydap for 7 days at doses of 2, 5, and 10 mg/kg/day, which were considered as the low dose, medium dose, and high dose, respectively. Correspondingly, the control group received PBS. On the 8th day, the liver and kidneys were removed, and organs from eight mice per group were combined to prepare MLMs and MKMs using the detailed procedures above. Subsequently, we determined the activity of CYP and UGT enzymes by specific substrate metabolized with MLMs (0.5 mg/mL) and MKMs (0.2 mg/mL) in vitro. Specifically, the following selective substrates were used for the respective enzymes: PH (1 μM) for CYP1A2, DIC (1 μM) for CYP2C9, MP (90 μM) for CYP2C19, DM (1 μM) for CYP2D6, CZX (10 μM) for CYP2E1, Tes (1 μM) for CYP3A4, SN38 (1 μM) for UGT1A1, CACD (100 μM) for UGT1A3, Sero (20 μM) for UGT1A6, and Prop (1 μM) for UGT1A9. All substrates were dissolved in methanol or DMSO. […] In the ex vivo experiments, the activity of enzymes was measured by quantifying the production of various metabolites (nM/mg protein/min). […] The measurements were performed using multiple reaction monitoring (MRM) transitions, which are specific mass spectrometry transitions used for quantification. […]

Cyp2d22 = test: Real-time PCR mRNA level after 7 days gavage: Cyp2d22 (human homolog CYP2D6); type: in vivo, mice; set-up: key to CYP2D6 mNA expression: ↑: up-regulation; ↓: down-regulation; –: no change
Protocol: Mice were randomly divided into four groups, with eight animals in each group. The mice received oral pretreatment with N-hydap for 7 days at doses of 2, 5, and 10 mg/kg/day, which were considered as the low dose, medium dose, and high dose, respectively. Correspondingly, the control group received PBS. On the 8th day, the liver and kidneys were removed, and organs from eight mice per group were combined to prepare MLMs and MKMs using the detailed procedures above. Subsequently, we determined the activity of CYP and UGT enzymes by specific substrate metabolized with MLMs (0.5 mg/mL) and MKMs (0.2 mg/mL) in vitro. Specifically, the following selective substrates were used for the respective enzymes: PH (1 μM) for CYP1A2, DIC (1 μM) for CYP2C9, MP (90 μM) for CYP2C19, DM (1 μM) for CYP2D6, CZX (10 μM) for CYP2E1, Tes (1 μM) for CYP3A4, SN38 (1 μM) for UGT1A1, CACD (100 μM) for UGT1A3, Sero (20 μM) for UGT1A6, and Prop (1 μM) for UGT1A9. All substrates were dissolved in methanol or DMSO. The incubation procedure was carried out as mentioned above, and the reaction was terminated with VER (20 ng/mL) in ESI+ mode and CLP (200 ng/mL) in ESI− mode. In the ex vivo experiments, the activity of enzymes was measured by quantifying the production of various metabolites (nM/mg protein/min). The metabolites and their corresponding enzymes are as follows: APAP from PH, 4-OH-DIC from DIC, 4-OH-MP from MP, DXO from DM, 6-OH-CZX from CZX, 6-OH-Tes from Tes, SN38-G from SN38, CACD-G from CACD, Sero-G from Sero, Prop-G from Prop. The measurements were performed using multiple reaction monitoring (MRM) transitions, which are specific mass spectrometry transitions used for quantification. […]
Total RNA from liver and kidney samples taken after 7 days of N-hydap gavage was extracted using the Animal Total RNA Isolation Kit (Foregene, Chengdu, Sichuan, China) following the manufacturer’s instructions. The concentrations of total RNA were determined by a nucleic acid concentration tester at 260/280 nm. […]

`CC1CCC2C(C=CC(C)C2C(=O)c2c(O)c(C3(O)CCC(O)C4OC43)cn(O)c2=O)C1` (stereo not drawn) [N-hydap, N-Hydroxyapiosporamide] was tested, and the Km (RKMs) was 125 µM, the “elevation of formation rate of CDCA-G” value (UGT1A3; MLMs and MKMs, range stated jointly for APAP, SN38-G, 6-OH-Tes and CDCA-G) was 12%-331% and the “catalytic activity of UGT1A3” value (UGT1A3; after 7 days of oral administration) was “significantly increased”. The “CYP2D6 mNA expression” value (Cyp2d22; Kidney) was “–”, the “CYP2D6 mNA expression” value (Cyp2d22; Liver) was “–” and the “mRNA levels of Cyp2d22” value (Cyp2d22; mice, 2, 5, 10 mg/kg p.o. 7 days) was “No significant changes”.
